Details: not given

| Compound | melting point [°C] | ready biodegradability | boiling point [°C] | log10 vapour pressure (mmHg) | log10 Koc (L/kg) | log10 Henry constant (atm·m³/mol) | log10 biodegradation half-life (days) |
| --- | --- | --- | --- | --- | --- | --- | --- |
| CCCCCCCCCCCCCCCCCC(=O)OCC(O)CO (configuration not stated) | 74 | readily biodegradable | – | – | – | – | – |
| CCOCCCl | – | – | 108 | – | – | – | – |
| COP(=S)(OC)Oc1ccc([N+](=O)[O-])c(Cl)c1 | 21 | – | – | -5.4 | – | – | – |
| O=C(O)COc1ccc(Cl)cc1Cl | 140 | not readily biodegradable | – | -4.08 | 1.66 | – | – |
| COc1nccnc1CC(C)C | – | – | – | – | – | -4.31 | – |
| Nc1ccc(Oc2ccc(N)cc2)cc1 | – | not readily biodegradable | 350 | – | – | – | – |
| N#Cc1cc(Br)c(O)c(Br)c1 | 190 | readily biodegradable | – | -7.33 | – | – | – |
| O=[N+]([O-])c1cc(Cl)ccc1Cl | 56 | not readily biodegradable | 267 | – | – | -4.92 | – |
| COc1cccc2c1C(=O)c1c(O)c3c(c(O)c1C2=O)C[C@@](O)(C(C)=O)C[C@@H]3O[C@H]1C[C@H](N)[C@H](O)[C@H](C)O1 | 208 | – | – | – | – | – | – |
| N#Cc1ccccc1Br | 55.5 | – | 252 | – | – | – | – |
| Sc1ccccc1 | -14.9 | not readily biodegradable | 169 | 0.286 | – | – | – |
| O=C(O)c1cc(-c2ccc(F)cc2F)ccc1O | 216 | – | – | – | – | – | – |
| CC1(C)[C@@H]2CC[C@@](C)(C2)[C@@H]1O | 45.8 | – | – | – | – | – | – |
| ClCC(Cl)(Cl)CCl | – | not readily biodegradable | 165 | 0.484 | – | – | – |
| CNc1nc(NC(C)C)nc(SC)n1 | 85 | – | 345 | -6 | – | – | – |
| S=C1NCCN1 | 203 | not readily biodegradable | 347 | – | – | – | – |
| C=C(CC)C(C)CC (configuration not stated) | – | – | 112 | – | – | – | – |
| C1CO1 | -112 | readily biodegradable | 10.6 | 3.12 | – | -3.83 | – |
| COc1c(Cl)c(Cl)c([N+](=O)[O-])c(Cl)c1Cl | 103 | – | – | – | – | – | – |

| Compound | melting point [°C] | ready biodegradability | boiling point [°C] | log10 vapour pressure (mmHg) | log10 Koc (L/kg) | log10 Henry constant (atm·m³/mol) | log10 biodegradation half-life (days) |
| --- | --- | --- | --- | --- | --- | --- | --- |
| CCCC(C)(C)C(C)CC (configuration not stated) | – | – | 161 | – | – | – | – |
| c1ccc([As](c2ccccc2)c2ccccc2)cc1 | 61 | – | 360 | -4.3 | – | – | – |
| CCCCB(CCCC)CCCC | – | – | 209 | – | – | – | – |
| CCC(CC)=NO | – | – | 168 | – | – | – | – |
| Cc1cccc2c1CCC2 | – | – | 205 | – | – | – | 0.301 |
| CC(C)CS(=O)(=O)CC(C)C | 17 | – | 265 | – | – | – | – |
| CCCCCCCCCCCCCCCl | 4.9 | – | 292 | -3.14 | – | – | – |
| Cc1[nH]nc(Cl)c1[N+](=O)[O-] | 111 | – | – | – | – | – | – |
| CC(C)=CCN1CC[C@@]2(C)c3cc(O)ccc3C[C@@H]1[C@@H]2C | 146 | – | – | – | – | – | – |
| O=C=Nc1ccccc1 | – | – | 163 | 0.41 | – | – | – |
| CCCCCCNC(=O)COC(=O)c1ccccc1 | 130 | – | – | – | – | – | – |
| Sc1ccccc1Cl | – | – | 206 | – | – | – | – |
| CSc1nnc(C(C)(C)C)c(=O)n1N | 126 | – | – | -6.36 | 1.71 | – | – |
| FC(Cl)C(Cl)Cl (configuration not stated) | – | – | 102 | – | – | – | – |
| CC(=O)Nc1ccc(N)cc1 | 166 | readily biodegradable | 267 | – | – | – | – |
| O=C(O)c1c(F)cccc1Cl | 160 | – | – | – | – | – | – |
| CCCCCCCCCCCCCCCCCC(=O)Nc1ccc(O)cc1 | 134 | – | – | – | – | – | – |
| Clc1ccc(Cl)c(-c2ccccc2)c1Cl | – | – | – | – | – | -3.66 | – |

Same assay, conditions: fish

| Compound | log10 BCF | log10 biotransformation half-life (days) |
| --- | --- | --- |
| COP(=S)(OC)Oc1ccc([N+](=O)[O-])c(Cl)c1 | 1.55 | -0.47 |
| O=[N+]([O-])c1cc(Cl)ccc1Cl | 2.05 | 0.56 |
| ClCC(Cl)(Cl)CCl | 1.57 | -0.28 |
| S=C1NCCN1 | 0.26 | – |
| Clc1ccc2c(c1)Oc1ccc(Cl)cc1O2 | 2.54 | 0.23 |
